The text below walks through data of article PMC10770617, “27-Hydroxylation of oncosterone by CYP27A1 switches its activity from pro-tumor to anti-tumor” (Journal of Lipid Research, 2023).

As a reminder, the inhibition is how much of the control response was suppressed. Read a high inhibition as a strong effect. A word on the Ki: it is a measure of affinity in units of concentration, obtained from inhibition or displacement. Read a low Ki as a stronger hold on the target.

One assay deals with T1, CYP27A1 (Homo sapiens, UniProt Q02318).
T1 construct: endogenous, MDA-231 and HepG2 cells
T1 sequence (Q02318 34-531): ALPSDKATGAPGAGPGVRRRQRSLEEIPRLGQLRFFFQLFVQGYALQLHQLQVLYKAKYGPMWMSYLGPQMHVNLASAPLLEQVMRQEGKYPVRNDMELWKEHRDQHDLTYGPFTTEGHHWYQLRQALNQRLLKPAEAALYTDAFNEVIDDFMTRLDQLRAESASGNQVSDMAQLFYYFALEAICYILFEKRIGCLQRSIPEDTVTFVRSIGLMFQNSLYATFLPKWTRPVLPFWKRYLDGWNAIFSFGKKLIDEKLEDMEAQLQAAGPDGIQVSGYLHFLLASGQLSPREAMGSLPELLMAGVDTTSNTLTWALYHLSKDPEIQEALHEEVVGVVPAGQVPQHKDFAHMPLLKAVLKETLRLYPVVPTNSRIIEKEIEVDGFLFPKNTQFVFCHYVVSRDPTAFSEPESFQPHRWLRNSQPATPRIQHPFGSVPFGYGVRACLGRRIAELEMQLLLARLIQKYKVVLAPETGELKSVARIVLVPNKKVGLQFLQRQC
The assay can be described thus: inhibition of 27-hydroxylation of […]-CT in cells at […] (TLC); about […] (MDA-231) and […] (HepG2) reduction. Format: cell-based.

The target in assay [1] is T2, HSD2 (11β-hydroxysteroid dehydrogenase type 2) (Homo sapiens, UniProt P80365).
T2 construct: gene HSD11B2; recombinant HSD2 (pCMV6-XL5 HSD2, SC122552) in HEK-293T cell lysate
T2 sequence (P80365 1-405): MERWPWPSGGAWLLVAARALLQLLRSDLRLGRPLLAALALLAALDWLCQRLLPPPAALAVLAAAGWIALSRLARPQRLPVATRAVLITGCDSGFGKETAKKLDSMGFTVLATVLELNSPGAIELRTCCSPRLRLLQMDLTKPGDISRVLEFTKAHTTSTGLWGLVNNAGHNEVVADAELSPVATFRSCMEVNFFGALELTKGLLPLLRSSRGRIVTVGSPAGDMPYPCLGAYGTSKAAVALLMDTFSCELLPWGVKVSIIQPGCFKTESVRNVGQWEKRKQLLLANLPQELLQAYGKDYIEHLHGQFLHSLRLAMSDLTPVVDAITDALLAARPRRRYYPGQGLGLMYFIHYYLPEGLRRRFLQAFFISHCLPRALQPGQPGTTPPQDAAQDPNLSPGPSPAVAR
As to the kind of experiment: inhibition of […]-CT to […]-OCDO conversion in HSD2-transfected HEK-293T lysate (TLC), Lineweaver-Burk and Dixon analysis. Format: biochemical.

`CC(O)(CS(=O)(=O)c1ccc(F)cc1)C(=O)Nc1ccc(C#N)c(C(F)(F)F)c1` (centres unmarked) [bicalutamide] yielded an inhibition at 10 µM against CYP27A1 of approximately 60%.
With `C[C@@H](CO)CCC[C@@H](C)[C@H]1CC[C@H]2[C@@H]3C[C@@H](O)[C@@]4(O)C[C@@H](O)CC[C@]4(C)[C@H]3CC[C@]12C` [27H-CT, (25R)-cholestane-3β,5α,6β,26-tetrol], the Ki in assay [1] amounted to 2.3 µM.
